# US9302999B2, “Substituted triazoles as herbicides” (E. I. DU PONT DE NEMOURS AND COMPANY, priority 2012, dated 2016)
# Assays:
# Assay type in all cases: in vivo
# [1] = system: cocklebur (common cocklebur, Xanthium strumarium); assay: Test F pre-/postemergence: cocklebur; conditions: Preemergence
# Method in brief: (§1)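 0–100 visual control scores, taken 14–21 d after application in the greenhouse. Preemergence treatment was made to silt loam soil at sowing. Postemergence sprays hit 1- to 4-leaf plants (2–18 cm) in peat/vermiculite mix. Surfactant-containing non-phytotoxic solvent served as the vehicle.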
# kochia (Kochia scoparia) = assay: Test F pre-/postemergence: kochia; conditions: Preemergence
# Method in brief: as §1
# [2] = system: foxtail, giant (giant foxtail, Setaria faberii); assay: Test F pre-/postemergence: foxtail, giant; conditions: Preemergence
# Method in brief: as §1
# [3] = system: poinsettia, wild (wild poinsettia, Euphorbia heterophylla); assay: Test F pre-/postemergence: poinsettia, wild
# Method in brief: as §1
# [4] = system: pigweed, palmer (palmer pigweed, Amaranthus palmeri); assay: Test F pre-/postemergence: pigweed, palmer
# Method in brief: as §1
# [5] = system: dayflower, VA (Virginia (VA) dayflower, Commelina virginica); assay: Test F pre-/postemergence: dayflower, VA
# Method in brief: as §1
# [6] = system: chamomile (scentless chamomile, Matricaria inodora); assay: Test D pre-/postemergence: chamomile
# Text: Seeds of plant species selected from bluegrass (annual bluegrass, Poa annua), blackgrass (Alopecurus myosuroides), canarygrass (Phalaris minor), chickweed (common chickweed, Stellaria media), galium (catchweed bedstraw, Galium aparine), bromegrass, downy (downy bromegrass, Bromus tectorum), field poppy (Papaver rhoeas), field violet (Viola arvensis), foxtail, green (green foxtail, Setaria viridis), deadnettle (henbit deadnettle, Lamium amplexicaule), ryegrass, Italian (Italian ryegrass, Lolium multiflorum), kochia (Kochia scoparia), lambsquarters (Chenopodium album), oilseed rape (Brassica napus), pigweed (Amaranthus retroflexus), Russian thistle (Salsola iberica), chamomile (scentless chamomile, Matricaria inodora), speedwell (bird's-eye speedwell, Veronica persica), barley, spring (spring barley, Hordeum vulgare), wheat, spring (spring wheat, Triticum aestivum), buckwheat, wild (wild buckwheat, Polygonum convolvulus), mustard, wild (wild mustard, Sinapis arvensis), oat, wild (wild oat, Avena fatua), radish, wild (wild radish, Raphanus raphanistrum), windgrass (Apera spica-venti), barley, winter (winter barley, Hordeum vulgare), and wheat, winter (winter wheat, Triticum aestivum) were planted into a silt loam soil and treated preemergence with test chemicals formulated in a non-phytotoxic solvent mixture which included a surfactant. At the same time, these same crop and weed species were planted in pots containing the planting medium comprising spaghnum peat moss, vermiculite, wetting agent and starter nutrients and treated with postemergence applications of the test chemicals formulated in the same manner. Plants ranged in height from 2 to 18 cm (1- to 4-leaf stage).
# Treated plants and controls were maintained in a controlled growth environment for 14 to 21 days after which time all species were compared to controls and visually evaluated. Plant response ratings, summarized in Table D, are based on a scale of 0 to 100 where 0 is no effect and 100 is complete control. A dash (-) response means no test result.
# [7] = system: foxtail, green (green foxtail Setaria viridis); assay: Test F pre-/postemergence: foxtail, green; conditions: Preemergence
# Method in brief: as §1
# [8] = 31 g ai/ha, scale 0 to 100, 0 no effect, 100 complete control
# [9] = 16 g ai/ha, scale 0 to 100, 0 no effect, 100 complete control
# [10] = Preemergence, 16 g ai/ha, scale 0 to 100, 0 no effect, 100 complete control
# [11] = Preemergence, 31 g ai/ha, scale 0 to 100, 0 no effect, 100 complete control
# [12] = Preemergence, 125 g ai/ha, scale 0 to 100
# [13] = Preemergence, 250 g ai/ha, scale 0 to 100
# [14] = Preemergence, 62 g ai/ha, scale 0 to 100
# [15] = Postemergence, 31 g ai/ha, scale 0 to 100 (0 no effect, 100 complete control)
# [16] = Postemergence, 62 g ai/ha, scale 0 to 100 (0 no effect, 100 complete control)
# [17] = Postemergence, 125 g ai/ha, scale 0 to 100, 0 no effect, 100 complete control
# [18] = Postemergence, 16 g ai/ha, scale 0 to 100
# [19] = 8 g ai/ha, scale 0 to 100, 0 no effect, 100 complete control
# [20] = Postemergence, 8 g ai/ha, scale 0 to 100
# [21] = Postemergence, 31 g ai/ha, scale 0 to 100
# [22] = Postemergence, 62 g ai/ha, scale 0 to 100
# [23] = Postemergence, 125 g ai/ha, scale 0 to 100
# [24] = Preemergence, 8 g ai/ha, scale 0 to 100, 0 no effect, 100 complete control
smiles,measurement,setting,value
Cc1nn(-c2ccc(C(F)(F)F)c(F)c2)nc1Oc1ccnc(C(F)(F)F)c1 [Compound 148],"Plant response rating, Cocklebur",[1]; [8],0
same,"Plant response rating, Cocklebur","[1]; 125 g ai/ha, scale 0 to 100",0
same,"Plant response rating, Kochia",kochia (Kochia scoparia); [9],0
same,"Plant response rating, Kochia",kochia (Kochia scoparia); [8],90
same,"Plant response rating, Kochia","kochia (Kochia scoparia); 62 g ai/ha, scale 0 to 100",90
same,"Plant response rating, Kochia","kochia (Kochia scoparia); 125 g ai/ha, scale 0 to 100",95
same,"Plant response rating, Kochia","kochia (Kochia scoparia); 250 g ai/ha, scale 0 to 100",98
same,"Plant response rating, Foxtail, Giant",[2]; [9],25
same,"Plant response rating, Foxtail, Giant",[2]; [8],95
same,"Plant response rating, Foxtail, Giant","[2]; 62 g ai/ha, scale 0 to 100",100
same,"Plant response rating, Foxtail, Giant","[2]; 125 g ai/ha, scale 0 to 100",100
same,"Plant response rating, Foxtail, Giant","[2]; 250 g ai/ha, scale 0 to 100",100
same,"Plant response rating, Poinsettia, Wild",[3]; [10],0
same,"Plant response rating, Poinsettia, Wild",[3]; [11],0
same,"Plant response rating, Poinsettia, Wild",[3]; [12],20
same,"Plant response rating, Poinsettia, Wild",[3]; [13],100
same,"Plant response rating, Pigweed, Palmer",[4]; [10],0
same,"Plant response rating, Pigweed, Palmer",[4]; [11],90
same,"Plant response rating, Pigweed, Palmer",[4]; [12],100
same,"Plant response rating, Pigweed, Palmer",[4]; [13],100
same,"Plant response rating, Dayflower, VA",[5]; [10],0
same,"Plant response rating, Dayflower, VA",[5]; [11],40
same,"Plant response rating, Dayflower, VA",[5]; [14],40
same,"Plant response rating, Dayflower, VA",[5]; [12],65
same,"Plant response rating, Dayflower, VA",[5]; [13],90
same,Plant response rating: Chamomile,[6]; [15],70
same,Plant response rating: Chamomile,[6]; [16],75
same,Plant response rating: Chamomile,[6]; [17],95
same,"Plant response rating, Chamomile",[6]; [18],60
same,"Plant response rating, Chamomile",[6]; [10],10
same,"Plant response rating, Chamomile",[6]; [11],20
same,"Plant response rating, Chamomile",[6]; [14],70
same,"Plant response rating, Chamomile",[6]; [12],100
same,"Plant response rating, Foxtail, Green",[7]; [9],35
same,"Plant response rating, Foxtail, Green",[7]; [8],100
same,"Plant response rating, Foxtail, Green","[7]; 62 g ai/ha, scale 0 to 100",100
same,"Plant response rating, Foxtail, Green","[7]; 125 g ai/ha, scale 0 to 100",100
same,"Plant response rating, Foxtail, Green","[7]; 250 g ai/ha, scale 0 to 100",100
CCc1nn(-c2ccc(C(F)(F)F)cc2)nc1Cc1ccnc(C(F)(F)F)c1 [Compound 155],"Plant response rating, Cocklebur","[1]; 62 g ai/ha, scale 0 to 100",0
same,"Plant response rating, Cocklebur","[1]; 125 g ai/ha, scale 0 to 100",40
same,"Plant response rating, Cocklebur","[1]; 250 g ai/ha, scale 0 to 100",40
same,"Plant response rating, Kochia","kochia (Kochia scoparia); 62 g ai/ha, scale 0 to 100",70
same,"Plant response rating, Kochia","kochia (Kochia scoparia); 125 g ai/ha, scale 0 to 100",98
same,"Plant response rating, Kochia","kochia (Kochia scoparia); 250 g ai/ha, scale 0 to 100",100
same,"Plant response rating, Foxtail, Giant","[2]; 62 g ai/ha, scale 0 to 100",98
same,"Plant response rating, Foxtail, Giant","[2]; 125 g ai/ha, scale 0 to 100",100
same,"Plant response rating, Foxtail, Giant","[2]; 250 g ai/ha, scale 0 to 100",100
same,"Plant response rating, Poinsettia, Wild",[3]; [12],80
same,"Plant response rating, Poinsettia, Wild",[3]; [13],100
same,"Plant response rating, Pigweed, Palmer",[4]; [12],100
same,"Plant response rating, Pigweed, Palmer",[4]; [13],100
same,"Plant response rating, Dayflower, VA",[5]; [14],20
same,"Plant response rating, Dayflower, VA",[5]; [12],35
same,"Plant response rating, Dayflower, VA",[5]; [13],60
same,Plant response rating: Chamomile,[6]; [15],70
same,Plant response rating: Chamomile,[6]; [16],80
same,Plant response rating: Chamomile,[6]; [17],85
same,"Plant response rating, Chamomile",[6]; [18],60
same,"Plant response rating, Chamomile",[6]; [10],5
same,"Plant response rating, Chamomile",[6]; [11],80
same,"Plant response rating, Chamomile",[6]; [14],95
same,"Plant response rating, Chamomile",[6]; [12],100
same,"Plant response rating, Foxtail, Green","[7]; 62 g ai/ha, scale 0 to 100",100
same,"Plant response rating, Foxtail, Green","[7]; 125 g ai/ha, scale 0 to 100",100
same,"Plant response rating, Foxtail, Green","[7]; 250 g ai/ha, scale 0 to 100",100
"CCOc1nn(-c2ccc(F)cc2)nc1Cc1ccnc(C(F)(F)F)c1 [Compound 196, 4-[[5-ethoxy-2-(4-fluorophenyl)-2H-1,2,3-triazol-4-yl]methyl]-2-(trifluoromethyl)pyridine]","Plant response rating, Cocklebur",[1]; [8],0
same,"Plant response rating, Cocklebur","[1]; 62 g ai/ha, scale 0 to 100",0
same,"Plant response rating, Cocklebur","[1]; 125 g ai/ha, scale 0 to 100",0
same,"Plant response rating, Kochia",kochia (Kochia scoparia); [19],5
same,"Plant response rating, Kochia",kochia (Kochia scoparia); [9],5
same,"Plant response rating, Kochia",kochia (Kochia scoparia); [8],10
same,"Plant response rating, Kochia","kochia (Kochia scoparia); 62 g ai/ha, scale 0 to 100",100
same,"Plant response rating, Kochia","kochia (Kochia scoparia); 125 g ai/ha, scale 0 to 100",100
same,"Plant response rating, Foxtail, Giant",[2]; [19],5
same,"Plant response rating, Foxtail, Giant",[2]; [9],85
same,"Plant response rating, Foxtail, Giant",[2]; [8],98
same,"Plant response rating, Foxtail, Giant","[2]; 62 g ai/ha, scale 0 to 100",98
same,"Plant response rating, Foxtail, Giant","[2]; 125 g ai/ha, scale 0 to 100",100
same,"Plant response rating, Poinsettia, Wild",[3]; [20],75
same,"Plant response rating, Poinsettia, Wild",[3]; [18],85
same,"Plant response rating, Poinsettia, Wild",[3]; [21],95
same,"Plant response rating, Poinsettia, Wild",[3]; [22],95
same,"Plant response rating, Poinsettia, Wild",[3]; [23],95
same,"Plant response rating, Poinsettia, Wild",[3]; [24],0
same,"Plant response rating, Poinsettia, Wild",[3]; [10],50
same,"Plant response rating, Poinsettia, Wild",[3]; [11],50
same,"Plant response rating, Poinsettia, Wild",[3]; [12],75
same,"Plant response rating, Pigweed, Palmer",[4]; [20],95
same,"Plant response rating, Pigweed, Palmer",[4]; [18],100
same,"Plant response rating, Pigweed, Palmer",[4]; [21],100
same,"Plant response rating, Pigweed, Palmer",[4]; [22],100
same,"Plant response rating, Pigweed, Palmer",[4]; [23],100
same,"Plant response rating, Dayflower, VA",[5]; [20],30
same,"Plant response rating, Dayflower, VA",[5]; [18],50
same,"Plant response rating, Dayflower, VA",[5]; [21],60
same,"Plant response rating, Dayflower, VA",[5]; [22],60
same,"Plant response rating, Dayflower, VA",[5]; [23],70
same,"Plant response rating, Dayflower, VA",[5]; [24],5
same,"Plant response rating, Dayflower, VA",[5]; [10],35
same,"Plant response rating, Dayflower, VA",[5]; [11],35
same,"Plant response rating, Dayflower, VA",[5]; [14],50
same,"Plant response rating, Dayflower, VA",[5]; [12],65
same,Plant response rating: Chamomile,[6]; [15],70
same,Plant response rating: Chamomile,[6]; [16],75
same,Plant response rating: Chamomile,[6]; [17],85
same,"Plant response rating, Chamomile",[6]; [18],60
same,"Plant response rating, Chamomile",[6]; [10],55
same,"Plant response rating, Chamomile",[6]; [11],85
same,"Plant response rating, Chamomile",[6]; [14],100
same,"Plant response rating, Chamomile",[6]; [12],100
same,"Plant response rating, Foxtail, Green",[7]; [19],75
same,"Plant response rating, Foxtail, Green",[7]; [9],75
same,"Plant response rating, Foxtail, Green",[7]; [8],85
same,"Plant response rating, Foxtail, Green","[7]; 62 g ai/ha, scale 0 to 100",100
same,"Plant response rating, Foxtail, Green","[7]; 125 g ai/ha, scale 0 to 100",100
